Entries after “also recorded” stand apart in the source; their conditions may differ.
Columns and labels:
[1] = Foam enhancing test (foam height in 50-ml conical tube); assay type: physicochemical; design: key: tube marking minus 10 (mL scale); 0 = no foam, 40 = maximum
Method: Foam enhancing capabilities of the Brevibacillus laterosporus A8.11 fermentate supernatant (cell free supernatant) were evaluated in the presence of different categories of surfactants and detergents commonly found in home and personal care cleaning formulations. To evaluate this, a solution of 1% zwitterionic detergent (CHAPS hydrate), 1% solution of the glycolipid biosurfactant type 1 (acidic sophorolipids non-acetylated), a 0.1% solution of glycolipid biosurfactant type 2 (lactonic (di-acetylated) sophorolipids), and 0.1% of the anionic/non-ionic detergent were each prepared with 10% cell free supernatant in a 50-ml conical tube with deionized water for a final volume of 10-mL. Control samples were prepared individually as 1% zwitterionic detergent, 1% solution of the glycolipid biosurfactant type 1, a 0.1% solution of glycolipid biosurfactant type 2, 0.1% of the anionic/non-ionic detergent and 10% cell free supernatant only in a 50-ml conical tube with deionized water for a final volume of 10-mL. All samples were shaken for 30 seconds by hand and left at room temperature to observe foam height. Foam height was measured by the marking on a 50-ml conical tube and subtracted by 10, where a value of 40 is the maximum foam height and a value of 0 indicates no foam.

[2] = tested on: Pseudomonas aeruginosa (ATCC #15442); assay: Polylysine control of Pseudomonas aeruginosa with or without Acumer 4200 (visual turbidity); assay type: cell-based; details: 37 C overnight
Method: The ability of Polylysine, a known cationic peptide-based food preservative, to suppress the growth of Pseudomonas aeruginosa in the presence and absence of the anionic polymer Acumer 4200 was also evaluated. The test was conducted in scintillation vials inoculated with a 1:100 dilution from an overnight of Pseudomonas aeruginosa (ATCC #15442) allowed to incubate at 37 C overnight. The readout was visual with turbidity as an indicator of Pseudomonas growth.

[3] = Foam stabilizing test (foam height in 50-ml conical tube); assay type: physicochemical; design: unit not given beside the values
Method: Foam stabilizing capabilities of the Brevibacillus laterosporus A8.11 fermentate supernatant (cell free supernatant) were evaluated in the presence of different categories of surfactants and detergents commonly found in home and personal care cleaning formulations. To evaluate this, a solution of a 1% non-ionic detergent (Tergitol 15-S-7) and a 1% solution of anionic surfactant (Sodium lauroyl sarcosinate) were each prepared with 10% cell free supernatant in a 50-ml conical tube with deionized water for a final volume of 10-mL. Control samples were prepared individually as 1% non-ionic detergent only, 1% anionic surfactant only and 10% cell free supernatant only in 50-ml conical tubes with deionized water for a final volume of 10-mL. All samples were shaken for 30 seconds by hand and left at room temperature to observe foam height. Foam height was measured by the marking on a 50-ml conical tube and subtracted by 10, where a value of 40 is the maximum foam height and a value of 0 indicates no foam. Foam stabilization was defined as the ability to maintain the starting foam height over multiple timepoints.

[4] = Activated ABTS antioxidant assay (absorbance at 405 nm, Trolox calibration); assay type: biochemical
Method: The Brevibacillus laterosporus fermentate was prepared as described in Example 2, using TSB media (1.7% Tryptone, 0.3% Soytone, 0.25% Glucose, 0.5% sodium chloride, 0.25% Potassium phosphate Dibasic) as the growing solution. The fermentate supernatant was first let flow through an Amicon® Ultra Centrifugal Filters with a size cutoff of 30 kDa. The permeate (which was essentially free of cells) was kept and then let flow through another Amicon® Ultra Centrifugal Filters with a size cutoff of 3 kDa. The retentate was concentrated by 10-fold in volume and stored as the final product (i.e., size is greater than 3 kDa and less than 30 kDa), referring as the concentrated fermentate in the subsequent experiments. The 10-fold concentrated fermentate was dosed separately at 2 weight percent into the serum (Table 2) and hydrogel (Table 3) formulations with xanthan gum.
The water-soluble analogue of α-Tocopherol, Trolox, is often used as a reference for characterization the antioxidant properties of a new ingredient in the assay (Reference: “Huang, S. W., Hopia, A., Schwarz, K., Frankel, E. N., & German, J. B. (1996). Antioxidant activity of α-tocopherol and trolox in different lipid substrates: bulk oils vs oil-in-water emulsions. Journal of Agricultural and Food Chemistry, 44 (2), 444-452.”).
A series of Trolox with different concentrations were used as the calibration curve for quantifying the antioxidant properties.
Table 5 summarizes the measured absorbance and the corresponding trolox equivalent (calculated from the Trolox calibration curve) of the fermentate and fermentate-dosed formulations.

[5] = Time 0, 10-mL in deionized water, shaken 30 seconds, 40 = maximum

Compound	Foam Height [1, 5]	Foam Height ([1]; Time 1 min)	Foam Height ([1]; Time 5 min)	Foam Height ([1]; Time 15 min)	Foam Height ([1]; Time 30 min)	Foam Height ([1]; Time 3 hours)	Foam Height ([1]; Time 24 hours)	further results
C[C@H](CCC(=O)NCCC[N+](C)(C)CCCS(=O)(=O)[O-])[C@H]1CC[C@H]2[C@@H]3[C@H](O)C[C@@H]4C[C@H](O)CC[C@]4(C)[C@H]3C[C@H](O)[C@]12C.O [Zwitterionic Detergent, CHAPS hydrate]	15	2.5	0	0	0	0	0	–
Polylysine	–	–	–	–	–	–	–	Visual Inspection ([2]; TSB growth medium with Acumer 4200 and polylysine): does not function as an antimicrobial; also recorded: Turbid; Visual Inspection ([2]; TSB growth medium with the substance alone): able to suppress microbial growth; also recorded: Clear (polylysine prevented growth)
Tergitol 15-S-7 [Non-ionic Detergent]	–	–	–	–	–	–	–	Foam Height [3, 5]: 37.5; Foam Height ([3]; Time 1 min): 37.5; Foam Height ([3]; Time 5 min): 36; Foam Height ([3]; Time 15 min): 22.5; Foam Height ([3]; Time 30 min): 20; Foam Height ([3]; Time 3 hours): 14; Foam Height ([3]; Time 24 hours): 2
lactonic (di-acetylated) sophorolipids [Glycolipid Biosurfactant Type-2]	2.5	2.5	2	1	1	0	0	–
acidic sophorolipids non-acetylated [Glycolipid Biosurfactant Type-1]	2.5	1	1	1	1	0	0	–
Cc1c(C)c2c(c(C)c1O)CCC(C)(C(=O)O)O2 (stereo not drawn) [Trolox]	–	–	–	–	–	–	–	Measured absorbance ([4]; Trolox 4.7 μM): 1.16; Measured absorbance ([4]; Trolox 9.4 μM): 1.13; Measured absorbance ([4]; Trolox 18.75 μM): 1.09; Measured absorbance ([4]; Trolox 37.5 μM): 0.97; Measured absorbance ([4]; Trolox 75 μM): 0.77; Measured absorbance ([4]; Trolox 150 μM): 0.38

Reference: patent US20250281388A1, “COMPOSITIONS COMPRISING BREVIBACILLA MULTIFUNCTIONAL FERMENTATES AND METHODS OF USE” (Nutrition & Biosciences USA 4, Inc., priority 2022, published 2025)
